Measurements from PMC11858653, “Design, Synthesis and Bioactive Evaluation of Topo I/c-MYC Dual Inhibitors to Inhibit Oral Cancer via Regulating the PI3K/AKT/NF-κB Signaling Pathway” (Molecules, 2025).

How the values were obtained:
SV-HUC-1 = assay: MTT assay, normal cell line SV-HUC-1; format: cell-based; details: mean ± SD
Description: (§1) Having evaluated their Topo I inhibitory activity, the antiproliferative activity of the target compounds against some common human cancer cell lines (NCI-H460, A549, ACHN, Cal27 and MGC-803) and one normal cell line (SV-HUC-1) was tested via an MTT assay. TPT, the first Topo I inhibitor approved in clinics, and cisplatin (CDDP), a commonly selected anticancer drug for treating head and neck malignancies, were used as the positive controls.
(§2) Human oral cancer Cal27 cells were seeded in 96-well plates and incubated overnight in 180 μL of medium containing 10% Fetal Bovine Serum (Gibco, San Francisco, CA, USA). […] Then, 10 μL of 5 mg/mL MTT solution was added to each well and incubated at 37 °C for 4 h. After 4 h of incubation at 37 °C, the MTT-containing medium was removed and DMSO was added to each well and the absorbance at 570 nm and 630 nm was measured using a microplate reader (CYTATION 3, Burton, Westwood, NJ, USA). Survival/% = (mean OD of experimental group/mean OD of control group) × 100%. Each test was repeated at least three times.

MGC-803 = assay: MTT antiproliferative assay, MGC-803; format: cell-based, human; details: mean ± SD
Description: as §1, §2

NCI-H460 = assay: MTT antiproliferative assay, NCI-H460; format: cell-based, human; details: mean ± SD
Description: as §1, §2

Topo I = target: T1, Topo I (Homo sapiens, UniProt P11387); assay: Topo I inhibitory activity, agarose gel electrophoresis (pBR322); format: biochemical; details: for nicked DNA in the lane (DNA breakage) / Topo I inhibitory activity (in words): 20 μM
T1 sequence (P11387 1-765): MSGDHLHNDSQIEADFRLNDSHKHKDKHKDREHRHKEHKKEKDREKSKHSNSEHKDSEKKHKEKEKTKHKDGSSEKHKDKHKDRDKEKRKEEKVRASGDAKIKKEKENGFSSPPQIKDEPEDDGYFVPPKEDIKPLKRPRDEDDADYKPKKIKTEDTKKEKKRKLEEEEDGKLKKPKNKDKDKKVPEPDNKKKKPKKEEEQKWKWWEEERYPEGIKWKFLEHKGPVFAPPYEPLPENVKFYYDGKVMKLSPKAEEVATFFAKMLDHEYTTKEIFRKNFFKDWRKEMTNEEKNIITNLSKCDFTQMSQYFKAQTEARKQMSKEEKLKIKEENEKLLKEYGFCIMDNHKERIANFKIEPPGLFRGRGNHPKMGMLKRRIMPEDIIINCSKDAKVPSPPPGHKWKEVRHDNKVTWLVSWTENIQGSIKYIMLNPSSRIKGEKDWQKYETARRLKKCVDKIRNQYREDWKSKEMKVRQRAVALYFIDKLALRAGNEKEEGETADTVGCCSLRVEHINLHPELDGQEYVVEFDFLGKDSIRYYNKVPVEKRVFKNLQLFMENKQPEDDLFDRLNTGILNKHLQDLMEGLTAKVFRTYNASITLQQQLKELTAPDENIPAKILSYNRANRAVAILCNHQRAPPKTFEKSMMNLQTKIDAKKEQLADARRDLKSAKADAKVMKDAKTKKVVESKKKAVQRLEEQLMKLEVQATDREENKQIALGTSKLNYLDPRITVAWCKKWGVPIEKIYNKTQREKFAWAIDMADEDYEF
Description: In this assay, 250 ng of pBR322 plasmid DNA, different concentrations of the compounds to be tested, 0.1% BSA 1 μL, 10× Topo I buffer, Topo I and add 1× TAE buffer were mixed to a final volume of 20 μL. The reaction was carried out for 30 min at 37 °C in a water bath. After the reaction was terminated, 4 μL of each of the 6× DNA Sampling Buffers were added to the gel. The pBR322 plasmid DNA alone was used as a negative control, and camptothecin was used as a positive control. Finally, the samples were loaded onto the gels and electrophoresed for about 1.5 h. After electrophoresis, the gel blocks were incubated in 1 mg/L ethidium bromide (EB) for 30 min and then visualized on the gel system.

ACHN = assay: MTT antiproliferative assay, ACHN; format: cell-based, human; details: 48 h, mean ± SD
Description: as §1, §2

Cal27 = assay: MTT antiproliferative assay, Cal27; format: cell-based, human; details: mean ± SD
Description: as §1, §2

A549 = assay: MTT antiproliferative assay, A549; format: cell-based, human; details: mean ± SD
Description: as §1, §2

Structure (SMILES) | IC50 (MGC-803; 48 h) | IC50 (NCI-H460; 48 h) | nicked DNA in the lane (DNA breakage) (Topo I) | IC50 (ACHN) | IC50 (A549; 48 h) | IC50 (MGC-803; Homo sapiens, MGC-803, 48 h) | IC50 (NCI-H460; Homo sapiens, NCI-H460, 48 h) | IC50 (ACHN; Homo sapiens, ACHN) | IC50 (A549; Homo sapiens, A549, 48 h) | Topo I inhibitory activity (in words) (Topo I) | concentration at which the activity of Topo I was fully inhibited (Topo I; different concentrations) | IC50 (SV-HUC-1; 48 h) | IC50 (Cal27; 48 h) | IC50 (SV-HUC-1; SV-HUC1, 48 h) | IC50 (Cal27; Homo sapiens, CAL-27, 48 h)
NCCCNc1nc2c(c3ccccc13)S(=O)(=O)c1ncccc1-2 [7ak, 5-((3-Aminopropyl)amino)pyrido[3′,2′:4,5]thieno[3,2-c]isoquinoline 11,11-dioxide] |  |  | nicked DNA could be clearly observed |  |  | 10.2 ± 1.61 µM | 56.6 ± 3.25 µM | 7.94 ± 3.26 µM | 52 ± 1.49 µM |  |  |  |  | > 100 µM | 10.6 ± 1.32 µM
O=S1(=O)c2ncccc2-c2nc(NCCCN3CCCC3)c3ccccc3c21 [7ah, 5-((3-(Pyrrolidin-1-yl)propyl)amino)pyrido[3′,2′:4,5] thieno[3,2-c]isoquinoline 11,11-dioxide] |  |  | nicked DNA could be clearly observed |  |  | 19.5 ± 0.87 µM | 42.7 ± 2.28 µM | 13 ± 1.24 µM | 27.7 ± 1.49 µM |  |  |  |  | > 100 µM | 23.1 ± 2.48 µM
Cc1cc(C)c2c(n1)S(=O)(=O)c1c-2nc(NCCN2CCOCC2)c2ccccc12 [7bd, 7,9-Dimethyl-5-((2-morpholinoethyl)amino)pyrido[3′,2′:4,5]thieno[3,2-c]isoquinoline 11,11-dioxide] |  |  |  |  |  | > 100 µM | > 100 µM | > 100 µM | > 100 µM | weak Topo I activity |  |  |  | > 100 µM | > 100 µM
Cc1cc(C)c2c(n1)S(=O)(=O)c1c-2nc(NCCCN2CCCC2)c2ccccc12 [7bh, 7,9-Dimethyl-5-((3-(pyrrolidin-1-yl)propyl)amino)-pyrido[3′,2′:4,5]thieno[3,2-c]isoquinoline 11,11-dioxide] |  |  |  |  |  | 4.83 ± 0.67 µM | 4.79 ± 0.4 µM | 5.9 ± 1.45 µM | 4.84 ± 0.74 µM | potent Topo I activity | 40 µM |  |  | 3.83 ± 0.14 µM | 3.47 ± 0.84 µM
CN(C)CCCNc1nc2c(c3ccccc13)S(=O)(=O)c1ncccc1-2 [7af, 5-((3-(Dimethylamino)propyl)amino)pyrido[3′,2′:4,5] thieno[3,2-c]isoquinoline 11,11-dioxide] |  |  | nicked DNA could be clearly observed |  |  | 9.84 ± 1.32 µM | 64.5 ± 2.88 µM | 14.7 ± 0.15 µM | 13.8 ± 2.53 µM |  |  |  |  | > 100 µM | 10.6 ± 0.96 µM

More lines, main results first:

IC50 (MGC-803; 48 h) | IC50 (NCI-H460; 48 h) | nicked DNA in the lane (DNA breakage) (Topo I) | IC50 (ACHN) | IC50 (A549; 48 h) | IC50 (MGC-803; Homo sapiens, MGC-803, 48 h) | IC50 (NCI-H460; Homo sapiens, NCI-H460, 48 h) | IC50 (ACHN; Homo sapiens, ACHN) | IC50 (A549; Homo sapiens, A549, 48 h) | Topo I inhibitory activity (in words) (Topo I) | concentration at which the activity of Topo I was fully inhibited (Topo I; different concentrations) | Structure (SMILES) | IC50 (SV-HUC-1; 48 h) | IC50 (Cal27; 48 h) | IC50 (SV-HUC-1; SV-HUC1, 48 h) | IC50 (Cal27; Homo sapiens, CAL-27, 48 h)
13.3 ± 4.44 µM | 12.6 ± 2.23 µM | nicked DNA could be clearly observed | 16.6 ± 3.08 µM | > 100 µM |  |  |  |  |  |  | Cc1cc(-c2ccccc2)nc2c1-c1nc(NCCCN(C)C)c3ccccc3c1S2(=O)=O [7cf, 5-((3-(Dimethylamino)propyl)amino)-7-methyl-9-phenylpyrido[3′,2′:4,5]thieno[3,2-c]isoquinoline 11,11-dioxide] | 12.1 ± 3.26 µM | 21.5 ± 3.81 µM |  | 
 |  |  |  |  | 6.02 ± 1.59 µM | 7.68 ± 0.88 µM | 5.66 ± 0.54 µM | 7.54 ± 2.07 µM | weak Topo I activity |  | CCN(CC)CCNc1nc2c(c3ccccc13)S(=O)(=O)c1nc(C)cc(C)c1-2 [7bb, 5-((2-(Diethylamino)ethyl)amino)-7,9-dimethylpyrido[3′,2′:4,5]thieno[3,2-c]isoquinoline 11,11-dioxide] |  |  | 3.57 ± 0.35 µM | 4.89 ± 2.41 µM
 |  | nicked DNA could be clearly observed |  |  | 15.2 ± 3.41 µM | 12 ± 4.2 µM | 16.9 ± 3.27 µM | 9.69 ± 2.08 µM |  |  | O=S1(=O)c2ncccc2-c2nc(NCCN3CCCC3)c3ccccc3c21 [7ac, 5-((2-(Pyrrolidin-1-yl)ethyl)amino)pyrido[3′,2′:4,5] thieno[3,2-c]isoquinoline 11,11-dioxide] |  |  | 14.2 ± 2.77 µM | 14.6 ± 2.12 µM
 |  |  |  |  | 6.33 ± 0.75 µM | 6.68 ± 1.5 µM | 4.59 ± 1.68 µM | 7.03 ± 1.95 µM | potent Topo I activity |  | Cc1cc(C)c2c(n1)S(=O)(=O)c1c-2nc(NCCN(C)C)c2ccccc12 [7ba, 5-((2-(Dimethylamino)ethyl)amino)-7,9-dimethylpyrido[3′,2′:4,5]thieno[3,2-c]isoquinoline 11,11-dioxide] |  |  | 4.66 ± 1.69 µM | 4.99 ± 2 µM
